The values below come from patent publication US20080219962A1, “Method to Enhance the Bone Formation Activity of Bmp by Runx2 Acetylation” (BIORUNX CO., LTD., priority 2005, published 2008).

Numbered stars: 1 amine (or outer) side, 2 acyl side, 3 side chain; on linkers, the order of the positions; unused ones are H or OH. Bridge positions count the residues as written; N and C are the ends. Square brackets hold non-standard residues; d marks the D form. Peptide text beside a SMILES is read from it. I, II: the chains in the order shown. ξ: configuration not given here. hNle(7-SH) = O=C([C@H](CCCCCS[*:3])N[*:1])[*:2]; Ile(3ξ) = CCC(C)[C@H](N)C(=O)O

Test [1] concerns C2C12 pluripotent mesenchymal precursor cells. Nature of the test: Alkaline phosphatase (ALP) activity staining, early marker of osteoblast differentiation. The test is classed as cell-based. The conditions noted are these: increasing inhibitor concentration in presence of low concentration of BMP-2 (30 ng/ml), FIG. 18. Here is the method:
Particularly, C2C12 pluripotent mesenchymal precursor cells were treated with each HDAC inhibitor and then fixed with 3.7% formaldehyde for 10 minutes, to which western blue substrate (Promega) was added to induce color development for 10 minutes. And alkaline phosphatase (ALP) activity, an early marker of osteoblast differentiation was measured by the active staining method (Katagiri et al., J. Cell Biol. Vol. 127, 1755-66, 1994). As a result, the treatment of HDAC inhibitors such as TSA, SAHA, MS-275, FK228, Oxamflatin, CHAP27, SCOP152, SCOP304 and SCOP402 caused increase of ALP activity (FIG. 18).

For the next test, the system named is Runx2. Description: Runx2 acetylation: immunoprecipitation with anti-acetyl-lysine antibody, Western blot with anti-myc antibody. Conditions: C2C12 cells transfected with myc-tagged Runx2, treated with HDAC inhibitor; FIG. 13. The test is classed as cell-based. Here is the method: Following transfection, the C2C12 and 293 cells were lysed in ice-cold cell lysis buffer (25 mM HEPES (pH 7.5), 150 mM NaCl, 1% NP-40, 0.25% Na deoxycholate, 10% glycerol, 25 mM NaF, 1 mM EDTA, 1 mM Na3VO4, 250 μM phenylmethylsulfonyl fluoride, 10 μg/ml leupeptin, 10 μg/ml aprotinin) and cleared by centrifugation. The resulting supernatants were immunoprecipitated with the appropriate primary and secondary antibodies, and protein A- or protein G-Sepharose beads (Amersham) for 4 hours. All incubations were conducted at 4° C. The Sepharose beads were washed extensively and bound proteins were separated using SDS-PAGE, and then transferred to PVDF membranes. The membranes were incubated with the appropriate antibodies, washed, and then incubated with horseradish peroxidase-coupled secondary antibodies. After washing, the reactive proteins were visualized with an enhanced chemiluminescence (ECL) reagent (Amersham Biosciences).
For HDAC inhibitor treatments, both C2C12 and 293 cells were cultured in fresh medium for 1 day following transfection, and then treated with the inhibitors (Tricostatin A (TSA), CHAP and SCOP) for 16 h, at the specified concentrations according to the methods of Komatsu et al (Cancer Res. 61:4459-4466, 2001) and Nishino et al (Nishino N. et al., Org. Lett. 5: 5079-5082, 2003).
The level of Runx2 acetylation might be controlled by a dynamic equilibrium between acetylation and deacetylation. […] In the present invention, inhibitors of histone diacetylase (HDAC) deacetylating most proteins were treated to Runx2. Particularly, C2C12 cells, transfected with myc-tagged Runx2, were treated with HDAC inhibitors such as SCOP304, SCOP152, CHAP27, SAHA, MS-275, FK228, TrafoxinB and Oxamflatin according to the method of Komatsu et al (Cancer Res. 61:4459-4466, 2001). Immunoprecipitation was performed using anti-acetyl-lysine antibody, followed by Western blot analysis using anti-myc antibody.
For orientation: Immunoblotting shows a protein as a band on a membrane.

The subject of test [2] is Runx2 transcriptional activity. Description: pGL3-TβRE-luc luciferase reporter assay in 293 cells over-expressing Runx2. The test is classed as cell-based. Conditions: 293 cells over-expressing Runx2 and pGL3-TβRE-luc reporter; FIG. 16. As to the method: For luciferase assay, cells were plated on a 24-well plate one day before transfection, followed by co-transfection with luciferase reporter plasmid and numbers of Runx2 constructs. 36 hours after transfection, cells were recovered and luciferase and β-galactosidase activities were measured in cell lysate by using Luciferase Reporter Assay Kit (Promega) using luminometer according to the manufacturer's recommendations. The pCMVβ-Gal (beta-Galactosidase, Clontech Laboratory) plasmid was included as an internal control to determine the efficiency of transfection.
To examine whether HDAC inhibitors, increasing the level of Runx2 acetylation, could promote the Runx2 transcriptional activity, 293 cells over-expressing Runx2 and pGL3-TβRE-luc reporter were treated with each HDAC inhibitor. The transcriptional activity of Runx2 was evaluated by luciferase report assay, which was performed according to the manufacturer (Promega)'s instructions. As a result, HDAC inhibitors, Tubacin, SAHA, MS-275, Trafoxin B, Oxamflatin, CHAP27, CHAP31, SCOP152, SCOP304 and SCOP402, increased transcriptional activity of Runx2 (FIG. 16). From the result, it was confirmed that HDAC inhibitors not only increase the level of Runx2 acetylation but also increase the Runx2 transcriptional activity.

Test [3] concerns periosteal bone formation. Nature of the test: Periosteal bone formation after hypodermic injection into mice calvarias, H&E histostaining. The test is classed as in vivo. Conditions: 10 μl of 60 μM injected hypodermically into calvarias, two weeks, FIG. 22. As to the method:
To confirm the effect of HDAC inhibitors on bone formation, the present inventors investigated the effect of CHAP27, SCOP402 and SCOP304 on periosteal bone formation in rodent. Particularly, 10 μl of HDAC inhibitors (60 μM) were hypodermically injected into mice calvarias (Zhao et al., J. Biol. Chem., 279, 12854-12859, 2004). Two weeks later, the mice were sacrificed, followed by hematoxyline & eosine histostaining (Cell Biology. Second edition, Edited by Julio E. Celis. Published by Academic Press, 1994).

Another test deals with OC promoter. Description: Osteocalcin (OC) promoter luciferase reporter assay in H1-127-21-2 cells. The test is classed as cell-based, mouse. The conditions noted are these: H1-127-21-2 cells over-expressing pCS4-3Myc-Runx and pGL2-1050 OC-luc; FIG. 19. From the text: Full-length Runx2 (SEQ. ID. No 2) labeled with Myc or HA was inserted into a vector to construct CMV promoter-derived mammalian expression vectors pCS4-3Myc and pCS4-3HA (Jin et al., J Biol Chem. Vol. 279, 29409-17, 2004, Ogawa et al., Proc Natl Acad Sci USA. 1993 Vol. 90, 6859-63.). Mutations affecting the Runx2 acetylation site were introduced by PCR (Michaels A. Innis et al., PCR protocols: a guide to method and applications, Qcademic Press, Inc., 1990) and cloned into the pCS4-3Myc vector. The BMP receptor 1 (BMPR1) and HA-p300 expression vectors were obtained from M. Ewen (Dana-Farber Cancer Institute, Harvard Medical School, Boston) (Genes Dev. Vol. 8, 869-84, 1994). The expression plasmids for the myc-HDAC series were cloned into pCS4-3Myc. The luciferase reporter plasmid, pGL3-TbRE, contains two copies of TbRE (originally identified in the immunoglobulin Cα promoter) (Lee, K. S., et al., Mol. Cell. Biol. 20:8783-8792, 2000; pGL3 is product of Promega). […]
For luciferase assay, cells were plated on a 24-well plate one day before transfection, followed by co-transfection with luciferase reporter plasmid and numbers of Runx2 constructs. 36 hours after transfection, cells were recovered and luciferase and β-galactosidase activities were measured in cell lysate by using Luciferase Reporter Assay Kit (Promega) using luminometer according to the manufacturer's recommendations. […]
Background: Reporter assays use an easily measured gene product as a stand-in for the process of interest.

In the case of `C/C=C1\NC(=O)[C@H]2CSSCC/C=C/[C@H](CC(=O)N[C@H](C(C)C)C(=O)N2)OC(=O)[C@H](C(C)C)NC1=O` [FK228], the ALP activity entry in test [1] is listed as “increase”. For the same compound, in the test on Runx2, the Runx2 acetylation result is on record as “increased”.
`Nc1ccccc1NC(=O)c1ccc(CNC(=O)OCc2cccnc2)cc1` [MS-275, carbamate, [[4-[[(2-aminophenyl)amino]carbonyl]phenyl]methyl]-, 3-pyridinemethyl ester]: the ALP activity entry in test [1] is recorded as “increase”. The Runx2 acetylation result in the test with Runx2 is listed as “increased”. Moreover, in test [2], the “transcriptional activity of Runx2 (luciferase reporter)” value (“transcriptional activity of Runx2” below) is on record as “increased”.
As to `O=C(CCCCCCC(=O)Nc1ccccc1)NO` [SAHA, octanediamide, N-hydroxy-N′-phenyl-], the ALP activity result in test [1] is listed as “increase”. The Runx2 acetylation entry with Runx2 was “increased”. In addition, the “transcriptional activity of Runx2” value in test [2] is on record as “increased”.
Turning to `CCC(C)[C@@H]1NC(=O)[C@H]2CCCN2C(=O)[C@H](CCCCCSSCCCCC[C@@H]2NC(=O)[C@H]3CCCN3C(=O)[C@H](C(C)CC)NC(=O)[C@@H](Cc3ccc(OC)cc3)NC2=O)NC(=O)[C@@H](Cc2ccc(OC)cc2)NC1=O` (stereo partly drawn) [SCOP304, cyclo(L-Am7 (−)-D-Tyr(Me)-L-Ile-D-Pro)dimer] (I: cyclo([Ile(3ξ)][dP][hNle(7-SH)][dY](Me)) / II: cyclo([Ile(3ξ)][dY](Me)[hNle(7-SH)][dP]); disulfide I:3-II:3), the bone formation entry in test [3] was “remarkably enhanced”. In addition, the ALP activity entry in test [1] was “increase”. The Runx2 acetylation result in the test on Runx2 was “increased”. In addition, the “OC promoter activation over the activation observed for Runx2 alone” value in the test on OC promoter is recorded as 2-4 fold. In test [2], the “transcriptional activity of Runx2” value is listed as “increased”.
In the case of `CC(/C=C/C(=O)NO)=C\[C@@H](C)C(=O)c1ccc(N(C)C)cc1` [TSA, 2,4-heptadieneamide, 7-[4-(dimethylamino)phenyl]-N-hydroxy-4,6-dimethyl-7-oxo-, (2E,4E,6R)-], the ALP activity result in test [1] is recorded as “increase”.
For `O=C(CCCCCCC(=O)Nc1ccc([C@H]2O[C@@H](CSc3nc(-c4ccccc4)c(-c4ccccc4)o3)C[C@@H](c3ccc(CO)cc3)O2)cc1)NO` [Tubacin], the “transcriptional activity of Runx2” value in test [2] is reported as “increased”.
Take Oxamflatin: in test [1], the ALP activity result is recorded as “increase”. Besides, the Runx2 acetylation result with Runx2 was “increased”. Besides, the “transcriptional activity of Runx2” value in test [2] is recorded as “increased”.
Consider “cyclo(-L-Am7-D-Tyr(Me)-L-Ile-D-Pro-) [SCOP152]”, for which the ALP activity result in test [1] was “increase”. Moreover, in the test with Runx2, the Runx2 acetylation entry is “increased”. Also, the “transcriptional activity of Runx2” value in test [2] is listed as “increased”.
As to “cyclo(-L-Asu(NHOH)-D-Tyr(Me)-L-Ile-D-Pro-) [CHAP31]”, the “transcriptional activity of Runx2” value in test [2] is recorded as “increased”.
